Test results taken from patent publication US20210252265A1, “DEVICES AND METHODS FOR ULTRASONIC DELIVERY OF AN AGENT WITHIN AN ORAL CAVITY” (Suono Bio, Inc., priority 2018, published 2021).

System: oral inflammatory lesions in hamster cheek pouches
Test: Treatment of acetic acid-induced oral inflammatory lesions in hamster cheek pouches
Format: in vivo, Golden Syrian hamsters
Settings: mean +/- SEM
Procedure: FIG. 10 is a schematic of the procedure used to test delivery of budesonide to treat or prevent ulcers induced by acetic acid in hamster cheek pouches. 50% acetic acid was administered for 60 seconds. Male Golden Syrian hamsters weighing 100-120 g (Charles River Laboratories, Wilmington, Mass.) were used as received and randomly assigned to experimental groups by the researchers performing the work. To limit pain and distress, all animals received buprenorphine sustained release (SR) (subcutaneous administration, 1 mg/kg body weight, compounded by ZooPharm) just prior to the application of acetic acid for the induction of the oral lesion on day 0. All manipulations occurred with the animal under general anesthesia by inhaled isoflurane. Experimental treatment groups included topical application of budesonide solution with (Budesonide+US) and without (Budesonide) ultrasound. A positive disease control receiving no treatment was also included (Disease). Treatment was administered on day 0 immediately prior to lesion induction using acetic acid. While under general anesthesia, the left cheek pouch was everted, the device was placed on the buccal surface, and the fluid chamber filled with solubilized budesonide solution (0.1%, ˜1 mL). For the Budesonide+US treatment group, ultrasound was simultaneously applied for 3 seconds at an intensity of 5 W/cm2 and a 100% duty cycle. In experimental groups receiving budesonide only (Budesonide), drug was applied as described above without turning the ultrasound on. Immediately following budesonide treatment, oral lesions were induced by topical application of acetic acid (50% solution) as described in previous studies. Briefly, acetic acid was applied to the buccal surface using a liquid holder with a circular area of 5 mm2 for 60 seconds. After acetic acid application, the hamsters were placed back into their cages to recover. On every subsequent day, the cheek pouches were everted to reveal the lesion and an image captured to quantify lesion size. Treatments were then applied as described above. Lesion size was measured using ImageJ (National Institutes of Health, Bethesda, Md.). All data analysis was performed using GraphPad Prism software (GraphPad Software, Inc., La Jolla, Calif., USA). Two-group comparisons were made using Student's unpaired t-test using Welch's correction. Multiple comparisons were made using one-way ANOVA followed by Tukey's post-test. For all comparisons, p<0.05 was considered statistically significant. Data are reported as mean±standard error of the mean (SEM) except for temperature measurements that are reported as mean±standard deviation (SD).

SMILES: CCCC1O[C@@H]2C[C@H]3[C@@H]4CCC5=CC(=O)C=C[C@]5(C)[C@H]4[C@@H](O)C[C@]3(C)[C@]2(C(=O)CO)O1 (stereo partly shown) [Budesonide]
- oral lesion size (24 hours post-acetic acid induced injury, budesonide solution 0.1% with 40 kHz ultrasound 3 seconds, 5 W/cm2): 15.7+/−1.3 mm2
- oral lesion size (24 hours post-acetic acid induced injury, topical budesonide solution 0.1% without ultrasound): 20.3+/−1.1 mm2
- oral lesion size (48 hours after acetic acid-induced injury, budesonide with ultrasound): 18.71+/−2.3 mm2
- oral lesion size (48 hours after acetic acid-induced injury, topical budesonide without ultrasound): 25.5+/−1.6 mm2
